These results are taken from US20230348424A1, “HETEROCYCLIC COMPOUNDS AND METHODS OF USE” (Schrödinger, Inc., priority 2022, published 2023).

The target in experiment [1] is SOS1:KRAS (G12C) interaction (Homo sapiens (Human), UniProt Q07889). In words: SOS1 KRas(G12C) FRET Assay. The format is binding. As to conditions: 0.5 nM His10-SOS1 (res. 564-1049), 2.5 nM GST-KRAS G12C (res. 1-169), 2 hrs at RT. The essentials:
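GST-KRAS G12C (res. 1-169) at 2.5 nM and His10-SOS1 (res. 564-1049) at 0.5 nM, final, in PBS with 0.1% BSA, 5 mM MgCl2, 100 mM KF, 5 mM DTT and 0.5% DMSO. After 2 h at RT, FRET read at 665/615 nm and normalized to DMSO and no-SOS1 controls. IC50 by non-linear regression.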

Another experiment concerns the target human SOS1 (Homo sapiens (Human), UniProt Q07889). The experiment is described as follows: Surface Plasmon Resonance (SPR) SOS1 Binding Assay. As to conditions: biotinylated SOS1 (res. 564-1049), Biacore 8K, 25° C., kinetic or steady state fit, 1:1 binding; read-out: hSOS1 KD. The essentials: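 Biotinylated Avi-tagged human SOS1 (res. 564-1049) captured on streptavidin chip (~3,000 RU); compounds injected 60 s, dissociation 600 s, at 25° C in Tris pH 8.0 buffer with 5% DMSO. Reference- and blank-subtracted; KD from kinetic or steady-state 1:1 binding fit.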
A general note: In SPR one partner is held on a chip, and binding of the other changes the refractive index at the surface.

The structures appear in SMILES notation.

SOS1:KRAS (G12C) interaction, sequence (Q07889 564-1049, stated change not applied): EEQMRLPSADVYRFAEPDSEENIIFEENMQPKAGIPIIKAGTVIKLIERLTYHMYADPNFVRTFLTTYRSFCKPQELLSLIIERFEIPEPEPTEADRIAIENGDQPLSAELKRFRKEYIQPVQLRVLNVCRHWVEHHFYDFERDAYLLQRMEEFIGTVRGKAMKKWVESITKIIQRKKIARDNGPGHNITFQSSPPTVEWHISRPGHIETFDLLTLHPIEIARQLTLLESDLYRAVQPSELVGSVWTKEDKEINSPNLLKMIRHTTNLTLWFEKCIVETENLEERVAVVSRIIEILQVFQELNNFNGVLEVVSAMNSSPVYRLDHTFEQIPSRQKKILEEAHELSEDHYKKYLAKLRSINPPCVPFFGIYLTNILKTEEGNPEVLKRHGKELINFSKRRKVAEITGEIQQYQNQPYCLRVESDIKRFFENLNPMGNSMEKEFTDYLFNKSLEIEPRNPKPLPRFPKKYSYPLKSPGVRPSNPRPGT
human SOS1, sequence (Q07889 564-1049): as the sequence (Q07889 564-1049, stated change not applied) above

The term IC50 denotes the point on the concentration scale where inhibition reaches its midpoint. Read a high IC50 as lower potency. The term Kd denotes the concentration at which binding is half-saturated. As to `C[C@@H](NC(=O)c1cn(C23CC(F)(C2)C3)c(=O)cc1N[C@H]1[C@@H]2CN(C)C[C@@H]21)c1cccc(C(F)F)c1F` [Example 102, N-((R)-1-(3-(difluoromethyl)-2-fluorophenyl)ethyl)-1-(3-fluorobicyclo[1.1.1]pentan-1-yl)-4-(((1R,5S,6s)-3-methyl-3-azabicyclo[3.1.0]hexan-6-yl)amino)-6-oxo-1,6-dihydropyridine-3-carboxamide], 12.1 nM corresponded to half-maximal inhibition in experiment [1] (IC50). In addition, the Kd on human SOS1 worked out at 8 nM.

In experiment [1], `C[C@@H](NC(=O)c1cn(C23CC(C(F)F)(C2)C3)c(=O)cc1N[C@H]1[C@@H]2CN(C)C[C@@H]21)c1cccc(C(F)F)c1F` [Example 105, N-((R)-1-(3-(difluoromethyl)-2-fluorophenyl)ethyl)-1-(3-(difluoromethyl)bicyclo [1. 1.1]pentan-1-yl)-4-(((1R,5S,6s)-3-methyl-3-azabicyclo[3.1.0]hexan-6-yl)amino)-6-oxo-1,6-dihydropyridine-3-carboxamide] yielded a 50% inhibitory concentration (IC50) of 13 nM. For the same compound, at human SOS1, the Kd came to 9 nM.

As to `C[C@@H](NC(=O)c1cn(C23CC(C(F)(F)F)(C2)C3)c(=O)cc1N[C@H]1[C@@H]2CN(C)C[C@@H]21)c1cccc(C(F)F)c1F` [Example 106, N-((R)-1-(3-(difluoromethyl)-2-fluorophenyl)ethyl)-4-(((1R,5S,6s)-3-methyl-3-azabicyclo[3.1.0]hexan-6-yl)amino)-6-oxo-1-(3-(trifluoromethyl)bicyclo[1. 1.1]pentan-1-yl)-1,6-dihydropyridine-3-carboxamide], half-maximal inhibition in experiment [1] (IC50) required 16.8 nM. Besides, the Kd at human SOS1 worked out at 19 nM.

In experiment [1], `C[C@@H](NC(=O)c1cn(C2CC3(CC3)C2)c(=O)cc1N[C@H]1[C@@H]2CN(C)C[C@@H]21)c1cccc(C(F)F)c1F` [Example 107, N-((R)-1-(3-(difluoromethyl)-2-fluorophenyl)ethyl)-4-(((1R,5S,6s)-3-methyl-3-azabicyclo[3.1.0]hexan-6-yl)amino)-6-oxo-1-(spiro[2.3]hexan-5-yl)-1,6-dihydropyridine-3-carboxamide] yielded a half-inhibitory concentration (IC50) of 8.4 nM. Further, the dissociation constant Kd on human SOS1 turned out to be 3 nM.

Turning to `C[C@@H](NC(=O)c1cn(C(C)(C)C2CC2)c(=O)cc1N[C@H]1[C@@H]2CN(C)C[C@@H]21)c1cccc(C(F)F)c1F` [Example 108, 1-(2-cyclopropylpropan-2-yl)-N-((R)-1-(3-(difluoromethyl)-2-fluorophenyl)ethyl)-4-(((1R,5S,6s)-3-methyl-3-azabicyclo[3.1.0]hexan-6-yl)amino)-6-oxo-1,6-dihydropyridine-3-carboxamide], in experiment [1], it took 147 nM to reach half-maximal inhibition (IC50). Moreover, the Kd at human SOS1 amounted to 343 nM.

Take `C[C@@H](NC(=O)c1cn([C@H]2C[C@@H]2C(F)F)c(=O)cc1N[C@H]1[C@@H]2CN(C)C[C@@H]21)c1cccc(C(F)F)c1F` [Example 113, N-((R)-1-(3-(difluoromethyl)-2-fluorophenyl)ethyl)-1-((1S,2S)-2-(difluoromethyl)cyclopropyl)-4-(((1R,5S,6s)-3-methyl-3-azabicyclo[3.1.0]hexan-6-yl)amino)-6-oxo-1,6-dihydropyridine-3-carboxamide]: in experiment [1], the 50% inhibitory concentration (IC50) came to 10.5 nM. For the same compound, the dissociation constant (Kd) at human SOS1 worked out at 6 nM.

Compound `C[C@@H](NC(=O)c1cn([C@@H]2C[C@H]2C(F)F)c(=O)cc1N[C@H]1[C@@H]2CN(C)C[C@@H]21)c1cccc(C(F)F)c1F` [Example 114, N-((R)-1-(3-(difluoromethyl)-2-fluorophenyl)ethyl)-1-((1R,2R)-2-(difluoromethyl)cyclopropyl)-4-(((1R,5S,6s)-3-methyl-3-azabicyclo[3.1.0]hexan-6-yl)amino)-6-oxo-1,6-dihydropyridine-3-carboxamide] registered a half-inhibitory concentration (IC50) in experiment [1] of 21.1 nM. Also, at human SOS1, the dissociation constant (Kd) is 13 nM.

`C[C@@H](NC(=O)c1cn(C2(C(F)(F)F)CC2)c(=O)cc1N[C@H]1[C@@H]2CN(C)C[C@@H]21)c1cccc(C(F)F)c1F` [Example 119, N-((R)-1-(3-(difluoromethyl)-2-fluorophenyl)ethyl)-4-(((1R,5S,6s)-3-methyl-3-azabicyclo[3.1.0]hexan-6-yl)amino)-6-oxo-1-(1-(trifluoromethyl)cyclopropyl)-1,6-dihydropyridine-3-carboxamide] returned an IC50 in experiment [1] of 36.6 nM. For the same compound, the dissociation constant Kd on human SOS1 was determined as 23 nM.

The compound `C[C@@H](NC(=O)c1cn(C2(C(F)F)CC2)c(=O)cc1N[C@H]1[C@@H]2CN(C)C[C@@H]21)c1cccc(C(C)(F)F)c1F` [Example 121, N-((R)-1-(3-(1,1-difluoroethyl)-2-fluorophenyl)ethyl)-1-(1-(difluoromethyl)cyclopropyl)-4-(((1R,5S,6s)-3-methyl-3-azabicyclo[3.1.0]hexan-6-yl)amino)-6-oxo-1,6-dihydropyridine-3-carboxamide] gave an IC50 in experiment [1] of 28.9 nM. For the same compound, at human SOS1, the Kd was found to be 21 nM.

Consider `C[C@@H](NC(=O)c1cn(C2CCOC(C)(C)C2)c(=O)cc1N[C@H]1[C@@H]2CN(C)C[C@@H]21)c1cccc(C(F)F)c1F` (stereo partly drawn) [Example 122, N-((R)-1-(3-(difluoromethyl)-2-fluorophenyl)ethyl)-1-(2,2-dimethyltetrahydro-2H-pyran-4-yl)-4-(((1R,5S,6s)-3-methyl-3-azabicyclo[3.1.0]hexan-6-yl)amino)-6-oxo-1,6-dihydropyridine-3-carboxamide], for which the IC50 in experiment [1] turned out to be 17.4 nM. For the same compound, on human SOS1, the Kd is 9 nM.

Consider `C[C@@H](NC(=O)c1cn(C2CCC(F)(F)CC2)c(=O)cc1N[C@H]1[C@@H]2CN(C)C[C@@H]21)c1cccc(C(F)F)c1F` [Example 123, 1-(4,4-difluorocyclohexyl)-N-((R)-1-(3-(difluoromethyl)-2-fluorophenyl)ethyl)-4-(((1R,5S,6s)-3-methyl-3-azabicyclo[3.1.0]hexan-6-yl)amino)-6-oxo-1,6-dihydropyridine-3-carboxamide], for which, in experiment [1], the midpoint of inhibition, the IC50, lay at 23.1 nM. Moreover, at human SOS1, the equilibrium dissociation constant (Kd) was 15 nM.

Turning to `C[C@@H](NC(=O)c1cn(C2(C(F)F)CC2)c(=O)cc1N[C@H]1C[C@@H]2CN(C)C[C@@H]2C1)c1cccc(C(F)F)c1F` [Example 125, N-((R)-1-(3-(difluoromethyl)-2-fluorophenyl)ethyl)-1-(1-(difluoromethyl)cyclopropyl)-4-(((3aR,5s,6aS)-2-methyloctahydrocyclopenta[c]pyrrol-5-yl)amino)-6-oxo-1,6-dihydropyridine-3-carboxamide], the IC50 in experiment [1] is 27.7 nM. Moreover, the equilibrium dissociation constant (Kd) at human SOS1 amounted to 13 nM.

With `C[C@@H](NC(=O)c1cn(C2CC3(C2)CC(F)(F)C3)c(=O)cc1N[C@@H]1CCN(C)C[C@@H]1F)c1cccc(C(F)F)c1F` [Example 126, N-((R)-1-(3-(difluoromethyl)-2-fluorophenyl)ethyl)-1-(6,6-difluorospiro[3 .3]heptan-2-yl)-4-(((3S,4R)-3-fluoro-1-methylpiperidin-4-yl)amino)-6-oxo-1,6-dihydropyridine-3-carboxamide], the IC50 in experiment [1] was determined as 4.4 nM. In addition, on human SOS1, the Kd was determined as 2 nM.

The compound `C[C@@H](NC(=O)c1cn(C2CC3(C2)CC(F)(F)C3)c(=O)cc1N[C@H]1CCN(C)C[C@H]1F)c1cccc(C(F)F)c1F` [Example 127, N-((R)-1-(3-(difluoromethyl)-2-fluorophenyl)ethyl)-1-(6,6-difluorospiro[3 .3]heptan-2-yl)-4-(((3R,4S)-3-fluoro-1-methylpiperidin-4-yl)amino)-6-oxo-1,6-dihydropyridine-3-carboxamide] came in with an IC50 in experiment [1] of 3 nM. For the same compound, at human SOS1, the dissociation constant (Kd) was found to be 3 nM.
